Assay [1] concerns the target Tyrosine-protein kinase JAK2 (Homo sapiens) (UniProt O60674). Description: Binding affinity to wild-type human partial length JAK2 JH1 catalytic domain (A829 to G1132 residues) expressed in mammalian expression system assessed as residual binding level at 10 uM by Kinomescan method relative to control.
Assay [2] has as its target Ribosomal protein S6 kinase alpha-2 (Homo sapiens) (UniProt Q15349). Description: Binding affinity to wild-type human partial length N- terminal RSK3 kinase domain 1 (M1 to Q385 residues) expressed in bacterial expression system assessed as residual binding level at 10 uM by Kinomescan method relative to control.
For the next assay, the system named is Neutrophil. Description: Inhibition of PMA-induced NETosis in human neutrophils assessed as reduction in lipid peroxidation at 20 uM preincubated for 30 mins followed by PMA stimulation measured after 30 mins by C11-Bodipy fluorescent dye based flow cytometry.
Assay [3] deals with Cyclin-dependent kinase 5 (Homo sapiens) (UniProt Q00535). Description: Binding affinity to wild-type human full length CDK5 (M1 to P292 residues) expressed in bacterial expression system assessed as residual binding level at 10 uM by Kinomescan method relative to control.
Assay [4] deals with Serine/threonine-protein kinase TAO3 (Homo sapiens) (UniProt Q9H2K8). Description: Binding affinity to wild-type human partial length TAOK3 (M1 to T316 residues) expressed in mammalian expression system assessed as residual binding level at 10 uM by Kinomescan method relative to control.
Assay [5] has as its target Casein kinase II subunit alpha (Homo sapiens) (UniProt P68400). The assay is described as follows: Binding affinity to wild-type human full length CSNK2A1 (M1 to Q391 residues) expressed in mammalian expression system assessed as residual binding level at 10 uM by Kinomescan method relative to control.
Assay [6] deals with Bone morphogenetic protein receptor type-1B (Homo sapiens) (UniProt O00238). The assay is described as follows: Binding affinity to wild-type human partial length BMPR1B (D178 to L502 residues) expressed in mammalian expression system assessed as residual binding level at 10 uM by Kinomescan method relative to control.
Assay [7] concerns the target Ribosomal protein S6 kinase alpha-1 (Homo sapiens) (UniProt Q15418). The assay is described as follows: Binding affinity to wild-type human partial length N-terminal RSK1 Kinase domain 1 (M1 to E388 residues) expressed in bacterial expression system assessed as residual binding level at 10 uM by Kinomescan method relative to control.
Assay [8] concerns the target Serine/threonine-protein kinase Nek4 (Homo sapiens) (UniProt P51957). The assay is described as follows: Binding affinity to wild-type human full length NEK4 (M1 to F841 residues) expressed in mammalian expression system assessed as residual binding level at 10 uM by Kinomescan method relative to control.
Assay [9] has as its target SRSF protein kinase 2 (Homo sapiens) (UniProt P78362). The assay is described as follows: Binding affinity to wild-type human full length SRPK2 (M1 to S686 residues) expressed in bacterial expression system assessed as residual binding level at 10 uM by Kinomescan method relative to control.
Assay [10] deals with Ephrin type-B receptor 2 (Homo sapiens) (UniProt P29323). The assay is described as follows: Binding affinity to wild-type human partial length EPHB2 (I597 to L902 residues) expressed in bacterial expression system assessed as residual binding level at 10 uM by Kinomescan method relative to control.
Assay [11] concerns the target Mitogen-activated protein kinase 12 (Homo sapiens) (UniProt P53778). Description: Binding affinity to wild-type human full length p38-gamma (M1 to L367 residues) expressed in mammalian expression system assessed as residual binding level at 10 uM by Kinomescan method relative to control.
Assay [12] has as its target Ephrin type-A receptor 7 (Homo sapiens) (UniProt Q15375). The assay is described as follows: Binding affinity to wild-type human partial length EPHA7 (Y608 to S912 residues) expressed in bacterial expression system assessed as residual binding level at 10 uM by Kinomescan method relative to control.
The target of assay [13] is Uncharacterized serine/threonine-protein kinase SBK3 (Homo sapiens) (UniProt P0C264). The assay is described as follows: Binding affinity to wild-type human partial length SgK110 (L22 to R329 residues) expressed in bacterial expression system assessed as residual binding level at 10 uM by Kinomescan method relative to control.
The target of assay [14] is Dual specificity mitogen-activated protein kinase kinase 3 (Homo sapiens) (UniProt P46734). Description: Binding affinity to wild-type human full length MEK3 (M1 to S318 residues) expressed in mammalian expression system assessed as residual binding level at 10 uM by Kinomescan method relative to control.
Chain of Dual specificity mitogen-activated protein kinase kinase 3 (Homo sapiens) (P46734 whole entry, the tested form may be a part): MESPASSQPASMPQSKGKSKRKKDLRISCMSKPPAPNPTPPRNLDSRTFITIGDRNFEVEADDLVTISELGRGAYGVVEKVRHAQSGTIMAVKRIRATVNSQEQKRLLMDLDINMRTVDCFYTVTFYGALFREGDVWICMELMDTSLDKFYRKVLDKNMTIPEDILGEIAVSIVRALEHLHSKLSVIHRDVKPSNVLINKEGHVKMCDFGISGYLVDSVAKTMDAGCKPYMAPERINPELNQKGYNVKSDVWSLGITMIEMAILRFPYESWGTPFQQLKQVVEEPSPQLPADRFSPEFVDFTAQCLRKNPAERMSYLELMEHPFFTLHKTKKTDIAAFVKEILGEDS
Assay [15] concerns the target Cyclin-dependent kinase-like 2 (Homo sapiens) (UniProt Q92772). Description: Binding affinity to wild-type human partial length CDKL2 (M1 to D327 residues) expressed in bacterial expression system assessed as residual binding level at 10 uM by Kinomescan method relative to control.
The target in assay [16] is MAP kinase-activated protein kinase 2 (Homo sapiens) (UniProt P49137). The assay is described as follows: Binding affinity to wild-type human partial length MAPKAPK2 (V48 to D345 residues) expressed in bacterial expression system assessed as residual binding level at 10 uM by Kinomescan method relative to control.
Chain of MAP kinase-activated protein kinase 2 (Homo sapiens) (P49137 whole entry, looked up, the tested form may be a part): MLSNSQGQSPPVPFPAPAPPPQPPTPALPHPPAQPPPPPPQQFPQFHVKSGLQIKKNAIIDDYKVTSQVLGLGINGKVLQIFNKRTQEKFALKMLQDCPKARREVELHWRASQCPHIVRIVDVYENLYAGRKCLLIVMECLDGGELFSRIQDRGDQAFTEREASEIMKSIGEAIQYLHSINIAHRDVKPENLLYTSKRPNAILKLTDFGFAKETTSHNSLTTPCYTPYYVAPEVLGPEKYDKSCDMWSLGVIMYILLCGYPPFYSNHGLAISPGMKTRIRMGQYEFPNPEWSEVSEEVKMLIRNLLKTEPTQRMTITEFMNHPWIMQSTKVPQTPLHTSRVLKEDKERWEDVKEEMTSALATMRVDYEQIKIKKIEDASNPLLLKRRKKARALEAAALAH
Assay [17] deals with Serine/threonine-protein kinase 33 (Homo sapiens) (UniProt Q9BYT3). Description: Binding affinity to wild-type human full length STK33 (M1 to L514 residues) expressed in bacterial expression system assessed as residual binding level at 10 uM by Kinomescan method relative to control.
Assay [18] has as its target SNF-related serine/threonine-protein kinase (Homo sapiens) (UniProt Q9NRH2). Description: Binding affinity to wild-type human partial length SNRK (M1 to E339 residues) expressed in mammalian expression system assessed as residual binding level at 10 uM by Kinomescan method relative to control.
Assay [19] relates to Serine/threonine-protein kinase B-raf (Homo sapiens), P15056 [V600E]. Description: Binding affinity to human partial length BRAF V600E mutant (S429 to E741 residues) expressed in mammalian expression system assessed as residual binding level at 10 uM by Kinomescan method relative to control.
Assay [20] addresses Calcium/calmodulin-dependent protein kinase type IV (Homo sapiens) (UniProt Q16566). Description: Binding affinity to wild-type human partial length CAMK4 (A22 to A322 residues) expressed in bacterial expression system assessed as residual binding level at 10 uM by Kinomescan method relative to control.
Assay [21] deals with Mitogen-activated protein kinase kinase kinase 5 (Homo sapiens) (UniProt Q99683). The assay is described as follows: Binding affinity to wild-type human partial length ASK1 (E648 to S964 residues) expressed in bacterial expression system assessed as residual binding level at 10 uM by Kinomescan method relative to control.
Chain of Mitogen-activated protein kinase kinase kinase 5 (Homo sapiens) (Q99683 whole entry, the tested form may be a part): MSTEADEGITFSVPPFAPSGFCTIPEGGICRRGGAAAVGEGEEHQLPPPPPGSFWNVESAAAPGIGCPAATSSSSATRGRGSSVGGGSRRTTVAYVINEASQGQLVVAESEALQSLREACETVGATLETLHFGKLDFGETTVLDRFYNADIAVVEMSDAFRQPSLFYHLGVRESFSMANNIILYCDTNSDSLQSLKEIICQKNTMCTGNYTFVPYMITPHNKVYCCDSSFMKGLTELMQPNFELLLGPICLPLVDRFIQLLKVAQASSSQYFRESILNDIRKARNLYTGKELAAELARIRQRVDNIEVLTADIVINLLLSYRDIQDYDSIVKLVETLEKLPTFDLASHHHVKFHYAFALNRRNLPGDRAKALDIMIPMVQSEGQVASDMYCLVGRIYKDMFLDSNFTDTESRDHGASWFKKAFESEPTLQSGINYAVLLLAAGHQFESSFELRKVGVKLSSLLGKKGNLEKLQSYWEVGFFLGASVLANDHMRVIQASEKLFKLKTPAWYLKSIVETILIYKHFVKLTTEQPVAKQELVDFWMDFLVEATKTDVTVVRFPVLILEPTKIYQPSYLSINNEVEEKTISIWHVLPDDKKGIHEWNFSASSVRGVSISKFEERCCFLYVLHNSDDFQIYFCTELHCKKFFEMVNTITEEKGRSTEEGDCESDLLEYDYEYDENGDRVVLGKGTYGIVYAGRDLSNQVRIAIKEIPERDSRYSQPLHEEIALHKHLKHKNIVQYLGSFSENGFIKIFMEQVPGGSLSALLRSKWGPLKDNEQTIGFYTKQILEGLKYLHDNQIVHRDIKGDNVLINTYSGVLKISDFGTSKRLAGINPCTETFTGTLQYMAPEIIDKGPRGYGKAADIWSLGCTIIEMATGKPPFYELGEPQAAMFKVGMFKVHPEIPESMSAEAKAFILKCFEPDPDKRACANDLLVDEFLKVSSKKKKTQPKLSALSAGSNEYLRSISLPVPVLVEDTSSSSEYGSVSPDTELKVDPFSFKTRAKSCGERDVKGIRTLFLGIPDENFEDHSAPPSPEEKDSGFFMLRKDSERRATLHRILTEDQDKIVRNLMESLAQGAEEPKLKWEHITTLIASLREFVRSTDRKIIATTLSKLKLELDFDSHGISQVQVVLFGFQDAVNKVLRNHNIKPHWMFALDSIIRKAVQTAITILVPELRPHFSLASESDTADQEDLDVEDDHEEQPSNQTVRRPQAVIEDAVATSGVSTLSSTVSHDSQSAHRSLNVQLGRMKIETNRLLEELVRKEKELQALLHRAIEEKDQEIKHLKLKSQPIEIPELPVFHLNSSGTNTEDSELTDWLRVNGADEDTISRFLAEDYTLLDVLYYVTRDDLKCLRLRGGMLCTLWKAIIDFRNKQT
Assay [22] concerns the target Serine/threonine-protein kinase TAO1 (Homo sapiens) (UniProt Q7L7X3). The assay is described as follows: Binding affinity to wild-type human partial length TAOK1 (M1 to A320 residues) expressed in mammalian expression system assessed as residual binding level at 10 uM by Kinomescan method relative to control.
In assay [23] the target is Casein kinase I isoform gamma-2 (Homo sapiens) (UniProt P78368). The assay is described as follows: Binding affinity to wild-type human full length CSNK1G2 (M1 to K415 residues) expressed in bacterial expression system assessed as residual binding level at 10 uM by Kinomescan method relative to control.

Calls of active or inactive are those of the source. The rule behind the calls is not given here.

Chain of SNF-related serine/threonine-protein kinase (Homo sapiens) (Q9NRH2 whole entry, the tested form may be a part): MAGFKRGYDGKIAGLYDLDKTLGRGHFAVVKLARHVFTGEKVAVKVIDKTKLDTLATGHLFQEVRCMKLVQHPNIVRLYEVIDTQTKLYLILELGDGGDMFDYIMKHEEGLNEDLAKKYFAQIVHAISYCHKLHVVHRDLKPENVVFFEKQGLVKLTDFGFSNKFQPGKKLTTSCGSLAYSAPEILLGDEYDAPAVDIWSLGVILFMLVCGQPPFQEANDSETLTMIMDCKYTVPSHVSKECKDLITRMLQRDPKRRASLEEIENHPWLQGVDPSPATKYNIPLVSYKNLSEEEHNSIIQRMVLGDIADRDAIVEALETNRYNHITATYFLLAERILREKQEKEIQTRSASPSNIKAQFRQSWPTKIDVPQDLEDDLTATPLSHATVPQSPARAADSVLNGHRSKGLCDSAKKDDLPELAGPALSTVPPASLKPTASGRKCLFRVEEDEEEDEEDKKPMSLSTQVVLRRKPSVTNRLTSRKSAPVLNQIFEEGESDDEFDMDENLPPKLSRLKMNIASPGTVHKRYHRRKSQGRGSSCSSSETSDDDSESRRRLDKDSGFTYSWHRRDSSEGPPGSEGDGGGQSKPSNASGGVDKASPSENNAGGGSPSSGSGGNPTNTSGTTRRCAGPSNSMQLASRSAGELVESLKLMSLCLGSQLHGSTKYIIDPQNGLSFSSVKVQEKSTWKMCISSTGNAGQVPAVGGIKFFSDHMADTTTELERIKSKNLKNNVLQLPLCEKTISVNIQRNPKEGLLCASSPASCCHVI
Chain of SRSF protein kinase 2 (Homo sapiens) (P78362 whole entry, looked up, the tested form may be a part): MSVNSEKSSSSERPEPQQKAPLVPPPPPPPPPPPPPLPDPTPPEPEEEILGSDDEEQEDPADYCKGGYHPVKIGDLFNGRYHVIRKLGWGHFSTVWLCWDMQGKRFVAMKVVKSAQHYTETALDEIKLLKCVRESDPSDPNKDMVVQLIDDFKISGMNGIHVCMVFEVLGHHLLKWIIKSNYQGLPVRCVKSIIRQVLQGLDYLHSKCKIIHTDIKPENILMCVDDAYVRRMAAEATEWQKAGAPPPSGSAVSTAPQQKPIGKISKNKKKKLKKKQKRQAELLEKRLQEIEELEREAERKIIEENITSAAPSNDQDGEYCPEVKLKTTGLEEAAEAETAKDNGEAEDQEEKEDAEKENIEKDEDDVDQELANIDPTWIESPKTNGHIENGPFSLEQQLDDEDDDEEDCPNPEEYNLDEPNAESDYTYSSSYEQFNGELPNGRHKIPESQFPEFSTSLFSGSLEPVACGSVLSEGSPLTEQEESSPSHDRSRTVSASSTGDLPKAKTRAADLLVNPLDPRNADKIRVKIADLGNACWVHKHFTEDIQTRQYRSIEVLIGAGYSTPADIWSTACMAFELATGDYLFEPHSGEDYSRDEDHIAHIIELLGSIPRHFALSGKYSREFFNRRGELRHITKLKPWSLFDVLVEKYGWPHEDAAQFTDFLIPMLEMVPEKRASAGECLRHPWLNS
Chain of Mitogen-activated protein kinase 12 (Homo sapiens) (P53778 whole entry, the tested form may be a part): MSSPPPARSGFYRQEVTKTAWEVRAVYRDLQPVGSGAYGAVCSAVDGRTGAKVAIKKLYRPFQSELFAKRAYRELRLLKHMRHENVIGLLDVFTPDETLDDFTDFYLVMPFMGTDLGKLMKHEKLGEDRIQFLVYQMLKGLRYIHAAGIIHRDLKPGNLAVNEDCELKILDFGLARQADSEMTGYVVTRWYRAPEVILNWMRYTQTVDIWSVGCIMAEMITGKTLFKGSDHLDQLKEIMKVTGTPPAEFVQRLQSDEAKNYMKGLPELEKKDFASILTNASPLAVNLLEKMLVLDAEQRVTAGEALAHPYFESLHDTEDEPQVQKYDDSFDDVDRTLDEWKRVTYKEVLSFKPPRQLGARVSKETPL
Chain of Ephrin type-A receptor 7 (Homo sapiens) (Q15375 28-998 limits assumed): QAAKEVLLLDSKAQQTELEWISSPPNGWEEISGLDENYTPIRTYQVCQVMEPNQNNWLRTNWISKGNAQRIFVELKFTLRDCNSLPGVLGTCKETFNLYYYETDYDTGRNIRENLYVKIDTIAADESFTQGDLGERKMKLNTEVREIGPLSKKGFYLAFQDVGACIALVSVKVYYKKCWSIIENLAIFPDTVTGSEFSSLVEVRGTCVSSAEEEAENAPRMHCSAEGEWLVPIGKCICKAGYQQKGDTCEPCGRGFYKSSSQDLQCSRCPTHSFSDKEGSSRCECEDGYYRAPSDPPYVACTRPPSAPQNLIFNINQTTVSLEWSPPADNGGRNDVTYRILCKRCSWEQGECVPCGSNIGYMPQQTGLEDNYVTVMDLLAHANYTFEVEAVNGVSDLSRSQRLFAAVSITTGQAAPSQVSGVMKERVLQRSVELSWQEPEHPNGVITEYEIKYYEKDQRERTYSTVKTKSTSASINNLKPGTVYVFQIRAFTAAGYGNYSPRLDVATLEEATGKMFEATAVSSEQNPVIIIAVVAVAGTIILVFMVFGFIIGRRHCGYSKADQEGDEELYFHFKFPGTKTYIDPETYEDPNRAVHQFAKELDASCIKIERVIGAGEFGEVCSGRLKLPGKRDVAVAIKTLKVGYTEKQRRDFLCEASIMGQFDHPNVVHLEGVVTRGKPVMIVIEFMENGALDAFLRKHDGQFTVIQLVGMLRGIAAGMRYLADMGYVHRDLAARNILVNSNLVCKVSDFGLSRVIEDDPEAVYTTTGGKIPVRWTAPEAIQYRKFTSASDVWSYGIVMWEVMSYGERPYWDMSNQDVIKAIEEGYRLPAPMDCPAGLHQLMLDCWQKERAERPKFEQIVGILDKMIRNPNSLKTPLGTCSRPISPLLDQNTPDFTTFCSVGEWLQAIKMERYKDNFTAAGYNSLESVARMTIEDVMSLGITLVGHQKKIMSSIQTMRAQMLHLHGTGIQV

Turning to `CC(C)N1C(=O)C(NCCCN(C)C)=C(c2cn(C)c3ccccc23)C1=O.Cl`, the Activity is 86% in assay [1]; 100% in assay [2]; 96% in assay [3]; 88% in [4]; 98% in assay [5]; 78% in assay [6]. The Activity turned out to be 98% in assay [7]; 96% in assay [8]; 100% in assay [9]; 97% in assay [10]; 72% in assay [11]; 93% in assay [12]. The Activity in assay [13] is 98%; in assay [14], 97%; in [15], 91%; in [16] it was 94%; in [17], 100%; in assay [18], 91%. The Activity worked out at 88% in [19]; 80% in assay [20]; 96% in [21]; 78% in assay [22]; 91% in assay [23]. Moreover, the inhibition entry in the assay on Neutrophil is “Active”.

The values are drawn from ChEMBL document CHEMBL4304811, “Development of a Water-Soluble Indolylmaleimide Derivative IM-93 Showing Dual Inhibition of Ferroptosis and NETosis” (ACS Med Chem Lett, 2019).
